Active and inactive are the calls of the source. The rule behind the calls is not given here.
Experiments:
[1] = target: Histone acetyltransferase KAT2A (Homo sapiens) (UniProt Q92830); test: Inhibition of recombinant human KAT2A (323 to 837 residues) using histone H3 peptide and [3H]-acetyl-coA as substrates at 200 uM incubated for 1 hrs by liquid scintillation counter analysis
[2] = target: Histone deacetylase 2 (Homo sapiens) (UniProt Q92769); test: Inhibition of human recombinant KDAC2 using Boc-Lys-(Ac)-AMC as substrate at 50 to 100 uM incubated for 45 mins by fluorescence microplate reader analysis; conditions: dose 50-100 µM
Sequence of Histone deacetylase 2 (Homo sapiens) (Q92769 whole entry, the tested form may be a part): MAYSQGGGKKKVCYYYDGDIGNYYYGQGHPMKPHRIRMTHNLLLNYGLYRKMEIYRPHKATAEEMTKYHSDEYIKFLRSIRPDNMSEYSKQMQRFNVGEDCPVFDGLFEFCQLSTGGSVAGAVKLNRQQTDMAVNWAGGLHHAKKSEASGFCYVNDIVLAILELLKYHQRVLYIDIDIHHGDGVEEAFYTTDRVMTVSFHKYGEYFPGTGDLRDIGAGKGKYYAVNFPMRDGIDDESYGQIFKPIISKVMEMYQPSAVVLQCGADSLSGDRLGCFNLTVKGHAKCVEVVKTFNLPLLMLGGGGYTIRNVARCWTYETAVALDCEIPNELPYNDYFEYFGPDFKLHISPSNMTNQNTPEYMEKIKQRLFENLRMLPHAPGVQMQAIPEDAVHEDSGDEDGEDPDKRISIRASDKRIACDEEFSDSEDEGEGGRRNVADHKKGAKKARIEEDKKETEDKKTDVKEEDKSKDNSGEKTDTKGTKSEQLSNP

[3] = target: T1, Histone acetyltransferase KAT8 (Homo sapiens) (UniProt Q9H7Z6); test: Time dependent inhibition of N-terminal 6His tagged KAT8 (173 to 458 residues) (unknown origin) expressed in Escherichia coli BL21(DE3) using biotinylated histone H4 peptide and [3H]Acetyl-CoA as substrates at 200 uM preincubated for 5 to 120 mins followed by substrate addition and measured after 4 hrs by MicroBeta microplate counter analysis; conditions: time 245-360 min
T1 sequence (whole entry): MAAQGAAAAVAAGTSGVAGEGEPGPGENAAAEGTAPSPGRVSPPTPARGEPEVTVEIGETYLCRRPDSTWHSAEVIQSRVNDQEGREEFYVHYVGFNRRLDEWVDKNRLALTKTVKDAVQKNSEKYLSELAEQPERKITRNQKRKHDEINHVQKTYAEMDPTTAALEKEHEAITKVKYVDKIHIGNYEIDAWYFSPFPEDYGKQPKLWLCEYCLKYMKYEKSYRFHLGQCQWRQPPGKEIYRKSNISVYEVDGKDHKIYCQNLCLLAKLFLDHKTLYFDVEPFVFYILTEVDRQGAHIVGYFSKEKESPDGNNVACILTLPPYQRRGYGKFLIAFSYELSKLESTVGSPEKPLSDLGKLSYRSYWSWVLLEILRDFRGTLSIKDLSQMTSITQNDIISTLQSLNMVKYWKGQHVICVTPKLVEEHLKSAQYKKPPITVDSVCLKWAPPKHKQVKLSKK

[4] = target: T1, Histone acetyltransferase KAT8 (Homo sapiens); test: Reversible inhibition of N-terminal 6His tagged KAT8 (173 to 458 residues) (unknown origin) expressed in Escherichia coli BL21(DE3) using biotinylated histone H4 peptide and [3H]Acetyl-CoA as substrates at 10XIC50 preincubated for 30 mins followed by dilution and substrate addition and measured upto 240 mins by MicroBeta microplate counter analysis; conditions: time 270.0 min
[5] = target: T1, Histone acetyltransferase KAT8 (Homo sapiens); test: Inhibition of human KAT8 in human HT-29 cells assessed as change in KAT8 expression level at 10 to 50 uM incubated for 24 hrs by Western blot analysis; format: cell-based; conditions: dose 10-50 µM
HCT-116 [6] = test: Antiproliferative activity against human HCT-116 cells assessed as cell proliferation inhibition at 10 to 100 uM incubated for 72 hrs by MTT assay; format: functional, cell-based; conditions: dose 10-100 µM
A549 = test: Antiproliferative activity against human A549 cells assessed as cell proliferation inhibition at 10 to 100 uM incubated for 72 hrs by MTT assay; format: functional, cell-based; conditions: dose 10-100 µM
U-937 = test: Antiproliferative activity against human U-937 cells assessed as cell proliferation inhibition at 10 to 100 uM incubated for 72 hrs by MTT assay; format: functional, cell-based; conditions: dose 10-100 µM
HT-29 [7] = test: Antiproliferative activity against human HT-29 cells assessed as cell proliferation inhibition at 10 to 100 uM incubated for 72 hrs by MTT assay; format: functional, cell-based; conditions: dose 10-100 µM
HeLa [8] = test: Antiproliferative activity against human HeLa cells assessed as cell proliferation inhibition at 10 to 100 uM incubated for 72 hrs by MTT assay; format: functional, cell-based; conditions: dose 10-100 µM
AHH-1 = test: Cytotoxicity against human AHH-1 cells assessed as inhibition of cell viability at 25 to 200 uM incubated for 72 hrs by MTT assay; format: toxicity, cell-based; conditions: ahh-1, 72 h, dose 25-200 µM
[9] = Cytotoxicity against human Intestinal epithelial cells assessed as inhibition of cell viability at 25 to 200 uM incubated for 72 hrs by MTT assay; format: toxicity, cell-based; conditions: dose 25-200 µM
HCT-116 [10] = test: Induction of cell cycle arrest in human HCT-116 cells assessed as increase in number of cells at sub-G1 phase with DNA hypodiploid at 50 uM incubated for 72 hrs by PI-staining based flow cytometry (Rvb=2%); format: functional
HCT-116 [11] = test: Induction of cell cycle arrest in human HCT-116 cells assessed as increase in number of cells at sub-G1 phase with DNA hypodiploid at 100 uM incubated for 72 hrs by PI-staining based flow cytometry (Rvb=2%); format: functional
HeLa [12] = test: Induction of cell cycle arrest in human HeLa cells assessed as increase in number of cells at sub-G1 phase with DNA hypodiploid at 50 uM incubated for 72 hrs by PI-staining based flow cytometry (Rvb=2%); format: functional
HeLa [13] = test: Induction of cell cycle arrest in human HeLa cells assessed as increase in number of cells at sub-G1 phase with DNA hypodiploid at 100 uM incubated for 72 hrs by PI-staining based flow cytometry (Rvb=2%); format: functional
HT-29 [14] = test: Effect on cell cycle progression in human HT-29 cells assessed as changes in cell cycle stages at 50 to 100 uM incubated for 72 hrs by PI-staining based flow cytometry; format: functional; conditions: dose 50-100 µM
HeLa [15] = test: Effect on cell cycle progression in human HeLa cells assessed as changes in cell cycle stages at 50 to 100 uM incubated for 72 hrs by PI-staining based flow cytometry; format: functional; conditions: dose 50-100 µM
HT-29 [16] = test: Induction of apoptosis in human HT-29 cells assessed as slight increase in apoptotic cells at 50 to 100 uM incubated for 72 hrs by Annexin V-FITC staining based flow cytometry; format: functional, cell-based; conditions: dose 50-100 µM
HCT-116 [17] = test: Induction of apoptosis in human HCT-116 cells assessed as slight increase in apoptotic cells at 50 to 100 uM incubated for 72 hrs by Annexin V-FITC staining based flow cytometry; format: functional, cell-based; conditions: dose 50-100 µM
NCI-H1299 [18] = test: Induction of autophagy in human NCI-H1299 cells stably expressing EGFP-LC3 assessed as increase in autophagosome formation by measuring fluorescence spots at 10 to 100 uM incubated for 48 hrs by Fluorescence microscopy; format: functional, cell-based; conditions: dose 10-100 µM
NCI-H1299 [19] = test: Induction of autophagy in human NCI-H1299 cells stably expressing EGFP-LC3 assessed as increase in EGFP-LC3 puncta formation at 10 to 100 uM incubated for 48 hrs by Fluorescence microscopy; format: functional, cell-based; conditions: dose 10-100 µM
NCI-H1299 [20] = test: Induction of autophagy in human NCI-H1299 cells stably expressing EGFP-LC3 assessed as change in LC3-II/LC3-I ratio at 10 to 100 uM incubated for 48 hrs by Western blot analysis; format: functional, cell-based; conditions: dose 10-100 µM
NCI-H1299 [21] = test: Induction of autophagy in human NCI-H1299 cells stably expressing EGFP-LC3 assessed as increase in p62 expression level at 10 to 100 uM incubated for 48 hrs by Western blot analysis; format: functional, cell-based; conditions: dose 10-100 µM
[22] = GSH reactivity of compound at pH 7.5 buffer at 0.5 mM and measured upto 24 hrs in presence of DTT and BME by HPLC analysis; format: physicochemical; conditions: pH 7.5, 24 h, 500 µM

Sequence of Histone acetyltransferase KAT2A (Homo sapiens) (Q92830 2-837 limits assumed): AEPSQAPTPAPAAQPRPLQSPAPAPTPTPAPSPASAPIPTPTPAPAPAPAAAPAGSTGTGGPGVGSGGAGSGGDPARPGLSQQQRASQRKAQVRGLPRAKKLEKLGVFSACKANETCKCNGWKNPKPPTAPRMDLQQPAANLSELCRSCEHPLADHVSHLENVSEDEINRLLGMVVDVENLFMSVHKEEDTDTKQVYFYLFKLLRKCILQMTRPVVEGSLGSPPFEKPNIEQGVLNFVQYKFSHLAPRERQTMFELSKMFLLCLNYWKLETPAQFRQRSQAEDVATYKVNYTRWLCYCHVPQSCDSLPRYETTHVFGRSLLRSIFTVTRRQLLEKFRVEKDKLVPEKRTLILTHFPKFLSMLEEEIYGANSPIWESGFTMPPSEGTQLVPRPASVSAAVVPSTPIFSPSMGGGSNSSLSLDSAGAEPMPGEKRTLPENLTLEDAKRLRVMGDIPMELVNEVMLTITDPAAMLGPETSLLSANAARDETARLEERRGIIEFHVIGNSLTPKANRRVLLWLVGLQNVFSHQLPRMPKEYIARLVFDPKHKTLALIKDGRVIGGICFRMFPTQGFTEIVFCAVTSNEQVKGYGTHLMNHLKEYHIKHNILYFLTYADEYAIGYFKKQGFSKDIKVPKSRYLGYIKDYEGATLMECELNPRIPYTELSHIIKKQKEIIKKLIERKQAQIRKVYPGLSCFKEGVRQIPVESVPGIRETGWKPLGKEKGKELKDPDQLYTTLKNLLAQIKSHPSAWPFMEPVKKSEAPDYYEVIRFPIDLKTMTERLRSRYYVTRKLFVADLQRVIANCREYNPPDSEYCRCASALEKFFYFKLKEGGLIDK

Row | SMILES | inhibition [1] | inhibition [2] | inhibition [3] | inhibition [4] | inhibition [5] | Activity (HCT-116 [6]) | Activity (A549) | Activity (U-937) | Activity (HT-29 [7]) | Activity (HeLa [8]) | Activity (AHH-1) | Activity [9] | Activity (HCT-116 [10]) [%] | Activity (HCT-116 [11]) [%] | Activity (HeLa [12]) [%] | Activity (HeLa [13]) [%] | Activity (HT-29 [14]) | Activity (HeLa [15]) | Activity (HT-29 [16]) | Activity (HCT-116 [17]) | other results
1 | O=C(O)c1ccc(N2N=C(c3ccccc3)/C(=C/c3ccc[nH]3)C2=O)cc1 | inactive | inactive | inactive | Active | inactive | Dose-Dependent Effect | Dose-Dependent Effect | Dose-Dependent Effect | Active | Active | Non-Toxic | Non-Toxic | 7 | 13 | 2 | 4 | inactive | inactive | Active | Active | Activity (NCI-H1299 [18]): Active; Activity (NCI-H1299 [19]): Active; Activity (NCI-H1299 [20]): Active; Activity (NCI-H1299 [21]): Active; Drug metabolism [22]: Not Active
2 | CC1=NN(c2ccc(C(=O)O)cc2)C(=O)/C1=C\c1ccc[nH]1 | inactive | inactive | inactive | Active | inactive | Dose-Dependent Effect | Dose-Dependent Effect | Dose-Dependent Effect | Active | Active | Non-Toxic | Non-Toxic | 3 | 6 | 2 | 5 | inactive | inactive | Active | Active | Activity (NCI-H1299 [18]): Active; Activity (NCI-H1299 [19]): Active; Activity (NCI-H1299 [20]): Active; Activity (NCI-H1299 [21]): Active; Drug metabolism [22]: Not Active

Source: ChEMBL document CHEMBL5338773, “First-in-Class Selective Inhibitors of the Lysine Acetyltransferase KAT8” (J Med Chem, 2023)
